Experimental data reported in patent US8691761B2, “Somatostatin receptor 2 antagonists” (priority 2006, dated 2014).
Bridge positions count the residues as written; N and C are the ends. Square brackets hold non-standard residues; d marks the D form. Peptide text beside a SMILES is read from it. * marks the point of attachment. ξ: configuration not given here. Phe(4-NO2) = N[C@@H](Cc1ccc([N+](=O)[O-])cc1)C(=O)O; dPhe(4-NHCONH2) = NC(=O)Nc1ccc(C[C@@H](N)C(=O)O)cc1; Phe(4-NHCONH2) = NC(=O)Nc1ccc(C[C@H](N)C(=O)O)cc1; ξDihydroorotoyl = O=C1CC(C(=O)*)NC(=O)N1; Phe(4-NH2) = Nc1ccc(C[C@H](N)C(=O)O)cc1; X1 = NC(=O)N[C@@H](Cc1ccc(Cl)cc1)C(=O)*; 2Nal = N[C@@H](Cc1ccc2ccccc2c1)C(=O)O

Tests used:
hSSTR5 = biological target: T1, hSSTR5 (Homo sapiens, UniProt P35346); assay: Receptor autoradiography, displacement of 125I-[Leu8,D-Trp22,Tyr25]-SRIF-28 from membrane pellet sections; type: binding; conditions: Table 3; mean ± SEM when N ≧ 3; read-out: sst5 binding affinity (IC50)
T1 construct: expressed in transfected cells; host or cells: CHO-K1 or CCL39 cells
Experimental: (§1) Generally, recombinant cells expressing the receptor are washed and homogenized to prepare a crude protein homogenate in a suitable buffer. In a typical assay, an amount of protein from the cell homogenate is placed into a small volume of an appropriate assay buffer at an appropriate pH. Candidate substances, such as potential SRIF agonists and antagonists, are added to the admixture in convenient concentrations, and the interaction between the candidate substance and the receptor polypeptide is monitored.
(§2) In vitro Bioassay: The effects of the various somatostatin analogs were tested in vitro for their ability to bind to isolated cloned receptors expressed on CHO-K1 cells and CCL39 cells. The molecular cloning of the genes encoding multiple somatostatin receptor subtypes permitted the individual expression of these receptors in mammalian cells and the characterization of their respective pharmacological profiles.
(§3) CHO-K1 cells were grown in Ham's F-12 medium, and CCL39 cells were grown in Dulbecco's modified Eagle's medium/Ham's F-12(1:1) mix, supplemented with 10% fetal bovine serum, 100 U/ml penicillin and 100 μg/ml streptomycin, in humidified air containing 5% CO2 at 37° C. Cells were washed twice with and scraped into ice-cold 0.05 M Tris-HCl (pH 7.4), collected by centrifugation, and homogenized using a rotor/stator/system in the same buffer. After centrifugation at 120 g for 5 min at 4° C., the supernatant was collected and centrifuged again at 48,000 g for 30 min at 4° C. The resulting pellet was resuspended in ice-cold Tris buffer, transferred into a microfuge tube, and centrifuged at 20,000 g for 15 min at 4° C. After withdrawal of the supernatant, the membrane pellet was stored at −80° C.
(§4) Receptor autoradiography was performed on 20 μm thick cryostat sections of the membrane pellets, mounted on microscope slides, and then stored at −20° C. […] Increasing concentrations of the unlabeled peptide were used ranging from 0.1-1000 nM. […] IC50 values were calculated after quantification of the data using a computer-assisted image processing system as known in this art.
(§5) The numbers in parentheses indicate the number of times the particular binding test was carried out.
(§6) Receptor autoradiography. Cell membrane pellets were prepared as previously described, and stored at −80° C. Receptor autoradiography was performed on 20-μm thick cryostat (Microm HM 500, Walldorf, Germany) sections of the membrane pellets, mounted on microscope slides, and then stored at −20° C. […] After a brief dip in distilled water to remove excess salts, the sections were dried quickly and exposed for 1 week to Kodak BioMax MR film. IC50 values were calculated after quantification of the data using a computer-assisted image processing system as described previously. […] (Reubi, J. C. “In vitro identification of vasoactive intestinal peptide receptors in human tumors: Implications for tumor imaging.” J. Nucl. Med. 1995, 36, 1846-1853).
(§7) To investigate their ssts binding properties, the peptides were tested for their ability to bind to cryostat sections from membrane pellets of cells expressing the five human ssts (Table 3).

hSSTR1 = biological target: T2, hSSTR1 (Homo sapiens, UniProt P30872); assay: as above; type: binding; conditions: Table 3; mean ± SEM when N ≧ 3; read-out: sst1 binding affinity (IC50)
T2 construct: expressed in transfected cells; host or cells: CHO-K1 or CCL39 cells
Experimental: as §1, §2, §3, §4, §5, §6, §7

hSSTR4 = biological target: T3, hSSTR4 (Homo sapiens, UniProt P31391); assay: as above; type: binding; conditions: Table 3; mean ± SEM when N ≧ 3; read-out: sst4 binding affinity (IC50)
T3 construct: expressed in transfected cells; host or cells: CHO-K1 or CCL39 cells
Experimental: as §1, §2, §3, §4, §5, §6, §7

hSSTR3 = biological target: T4, hSSTR3 (Homo sapiens, UniProt P32745); assay: as above; type: binding; conditions: Table 3; mean ± SEM when N ≧ 3; read-out: sst3 binding affinity (IC50)
T4 construct: expressed in transfected cells; host or cells: CHO-K1 or CCL39 cells
Experimental: as §1, §2, §3, §4, §5, §6, §7

hSSTR2 = biological target: T5, hSSTR2 (Homo sapiens, UniProt P30874); assay: as above; type: binding; conditions: Table 3; mean ± SEM when N ≧ 3; read-out: sst2 binding affinity (IC50)
T5 construct: expressed in transfected cells; host or cells: CHO-K1 or CCL39 cells
Experimental: as §1, §2, §3, §4, §5, §6, §7

human sst2A receptor = biological target: T6, human sst2A receptor (Homo sapiens, UniProt P30874); assay: Immunofluorescence-based sst2 internalization assay in HEK-sst2 cells; type: cell-based; conditions: n ≧ 2
T6 construct: expressed in transfected cells; host or cells: HEK293 (HEK-sst2)
Experimental: Immunofluorescence-based sst2 Internalization Assay. Immunofluorescence microscopy-based internalization assay for sst2 was performed with HEK-sst2 using the sst2-specific antibody R2-88 as described elsewhere herein. HEK-sst2 cells were treated either with vehicle alone, the sst2 agonist [Tyr^3]-octreotide at a concentration of 100 nM, [Tyr^3]-octreotide at a concentration of 100 nM in the presence of an excess of the SRIF analogues to be tested (100 times the concentration of [Tyr^3]-octreotide), or with the SRIF analogues to be tested alone at a concentration of 10 μM, and then processed for immunofluorescence microscopy as described previously.

T5 sequence (P30874 whole entry): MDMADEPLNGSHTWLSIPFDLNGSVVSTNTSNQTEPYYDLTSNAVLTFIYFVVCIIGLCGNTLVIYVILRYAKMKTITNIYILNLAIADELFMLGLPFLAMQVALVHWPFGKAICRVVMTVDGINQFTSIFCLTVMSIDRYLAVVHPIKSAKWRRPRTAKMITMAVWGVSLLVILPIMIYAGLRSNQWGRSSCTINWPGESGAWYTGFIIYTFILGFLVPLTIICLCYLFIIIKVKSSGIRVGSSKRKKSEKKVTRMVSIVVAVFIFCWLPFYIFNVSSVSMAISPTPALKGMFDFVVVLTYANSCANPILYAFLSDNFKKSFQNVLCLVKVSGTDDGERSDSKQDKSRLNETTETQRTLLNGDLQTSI
T3 sequence (P31391 whole entry): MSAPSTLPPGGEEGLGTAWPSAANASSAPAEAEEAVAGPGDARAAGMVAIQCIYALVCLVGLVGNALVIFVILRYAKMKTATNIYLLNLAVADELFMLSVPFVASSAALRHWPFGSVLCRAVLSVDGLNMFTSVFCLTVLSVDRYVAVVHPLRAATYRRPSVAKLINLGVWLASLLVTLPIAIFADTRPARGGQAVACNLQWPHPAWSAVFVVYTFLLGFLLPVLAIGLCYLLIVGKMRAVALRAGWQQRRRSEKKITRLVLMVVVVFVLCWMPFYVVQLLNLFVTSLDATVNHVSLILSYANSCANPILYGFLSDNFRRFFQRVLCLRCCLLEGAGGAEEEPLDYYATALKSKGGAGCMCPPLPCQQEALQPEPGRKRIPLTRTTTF
T2 sequence (P30872 whole entry): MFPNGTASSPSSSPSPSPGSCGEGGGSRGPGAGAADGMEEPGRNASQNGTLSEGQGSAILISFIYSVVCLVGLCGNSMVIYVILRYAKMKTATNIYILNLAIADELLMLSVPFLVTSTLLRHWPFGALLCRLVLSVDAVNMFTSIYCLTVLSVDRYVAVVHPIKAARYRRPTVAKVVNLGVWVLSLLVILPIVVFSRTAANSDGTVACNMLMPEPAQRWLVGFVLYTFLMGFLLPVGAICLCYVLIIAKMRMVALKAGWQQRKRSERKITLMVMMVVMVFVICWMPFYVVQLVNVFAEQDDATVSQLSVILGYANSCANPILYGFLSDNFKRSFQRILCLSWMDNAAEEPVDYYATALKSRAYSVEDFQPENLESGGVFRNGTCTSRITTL
T1 sequence (P35346 whole entry): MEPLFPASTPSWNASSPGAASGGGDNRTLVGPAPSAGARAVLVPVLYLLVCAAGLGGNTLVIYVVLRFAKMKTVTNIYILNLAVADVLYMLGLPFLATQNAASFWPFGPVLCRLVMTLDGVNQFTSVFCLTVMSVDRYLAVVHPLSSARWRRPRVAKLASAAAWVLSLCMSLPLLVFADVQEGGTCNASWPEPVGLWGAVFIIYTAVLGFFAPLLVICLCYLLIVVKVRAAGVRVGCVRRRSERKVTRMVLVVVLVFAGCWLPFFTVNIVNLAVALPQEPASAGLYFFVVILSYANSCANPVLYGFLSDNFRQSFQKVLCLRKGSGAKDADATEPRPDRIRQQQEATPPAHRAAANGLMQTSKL
T4 sequence (P32745 whole entry): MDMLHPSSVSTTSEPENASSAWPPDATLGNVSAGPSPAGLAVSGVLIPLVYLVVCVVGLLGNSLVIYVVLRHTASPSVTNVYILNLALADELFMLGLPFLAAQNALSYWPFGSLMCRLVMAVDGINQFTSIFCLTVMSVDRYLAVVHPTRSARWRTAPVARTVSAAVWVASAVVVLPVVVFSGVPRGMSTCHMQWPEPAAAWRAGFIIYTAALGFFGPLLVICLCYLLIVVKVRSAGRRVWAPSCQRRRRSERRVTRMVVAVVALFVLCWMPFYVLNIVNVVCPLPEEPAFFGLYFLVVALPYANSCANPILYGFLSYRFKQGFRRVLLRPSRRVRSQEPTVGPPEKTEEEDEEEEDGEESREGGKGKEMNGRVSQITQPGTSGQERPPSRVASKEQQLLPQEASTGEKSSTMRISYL
T6 sequence (P30874 whole entry): as the sequence (P30874 whole entry) above

| IC50 (hSSTR5) | IC50 (hSSTR1) | IC50 (hSSTR4) | IC50 (hSSTR3) | IC50 (hSSTR2) | sst2-internalization tested in vitro in HEK-sst2 cells (function) (human sst2A receptor) | Structure (SMILES) |
| --- | --- | --- | --- | --- | --- | --- |
| > 1000 nM | > 1000 nM | > 1000 nM |  |  |  | C[C@@H](O)[C@@H]1NC(=O)[C@H](CCCCN)NC(=O)[C@@H](Cc2ccc(NC(N)=O)cc2)NC(=O)[C@H](Cc2ccc(NC(=O)C3CC(=O)NC(=O)N3)cc2)NC(=O)[C@H](NC(=O)[C@@H](N)Cc2ccc([N+](=O)[O-])cc2)CSSC[C@@H](C(=O)N[C@@H](Cc2ccc3ccccc3c2)C(N)=O)NC1=O (stereo partly drawn) [compound 6, H2N-pNO2Phe-c[DCys-Aph(Hor)-DAph(Cbm)-Lys-Thr-Cys]-2Nal-NH2] (H-[Phe(4-NO2)][dC][Phe(4-NH2)](ξDihydroorotoyl)[dPhe(4-NHCONH2)]KTC[2Nal]-NH2; disulfide 2-7) |
| 247 ± 66 nM | > 1000 nM | > 1000 nM | 255 ± 79 nM | 4.1 ± 0.9 nM |  | C[C@@H](O)[C@@H]1NC(=O)[C@H](CCCCN)NC(=O)[C@@H](Cc2c[nH]c3ccccc23)NC(=O)[C@H](Cc2ccc(NC(N)=O)cc2)NC(=O)[C@H](NC(=O)[C@@H](N)Cc2ccc(Cl)cc2)CSSC[C@@H](C(=O)N[C@@H](CC2CCCCC2)C(N)=O)NC1=O [compound 18, H2N-Cpa-c[DCys-Aph(Cbm)-DTrp-Lys-Thr-Cys]-Cha-NH2] |
| 426 ± 189 nM | > 1000 nM | 813 ± 152 nM | 120 ± 45 nM | 9.3 ± 1.4 nM |  | C[C@@H](O)[C@@H]1NC(=O)[C@H](CCCCN)NC(=O)[C@@H](Cc2c[nH]c3ccccc23)NC(=O)[C@H](Cc2ccc(NC(=O)NO)cc2)NC(=O)[C@H](NC(=O)[C@@H](N)Cc2ccc(Cl)cc2)CSSC[C@@H](C(=O)N[C@@H](Cc2ccc3ccccc3c2)C(N)=O)NC1=O [compound 24, H2N-Cpa-c[DCys-Aph(CONH—OH)-DTrp-Lys-Thr-Cys]-2Nal-NH2] |
|  |  |  |  |  | Antagonist | C[C@@H](O)[C@@H]1NC(=O)[C@H](CCCCN)NC(=O)[C@@H](Cc2c[nH]c3ccccc23)NC(=O)[C@H](Cc2ccc(NC(N)=O)cc2)NC(=O)[C@H](NC(=O)[C@H](Cc2ccc(Cl)cc2)NC(=O)CCOCCOCCOCCNC(=O)CN2CCN(CC(=O)O)CCN(CC(=O)O)CCN(CC(=O)O)CC2)CSSC[C@@H](C(=O)N[C@@H](Cc2ccc3ccccc3c2)C(N)=O)NC1=O [compound 16, DOTA-Peg-Cpa-c[DCys-Aph(Cbm)-DTrp-Lys-Thr-Cys]-2Nal-NH2] |
| 313 ± 35 nM | > 1000 nM | 883 ± 174 nM | 157 ± 49 nM | 9.3 ± 0.9 nM |  | CONC(=O)Nc1ccc(C[C@@H]2NC(=O)[C@H](NC(=O)[C@@H](N)Cc3ccc(Cl)cc3)CSSC[C@@H](C(=O)N[C@@H](Cc3ccc4ccccc4c3)C(N)=O)NC(=O)[C@H]([C@@H](C)O)NC(=O)[C@H](CCCCN)NC(=O)[C@@H](Cc3c[nH]c4ccccc34)NC2=O)cc1 [compound 23, H2N-Cpa-c[DCys-Aph(CONH—OCH3)-DTrp-Lys-Thr-Cys]-2Nal-NH2] |
| 111 ± 17 nM | > 1000 nM | 136 ± 7.5 nM | 54 ± 15 nM | 23 ± 4.3 nM |  | C[C@@H](O)[C@@H]1NC(=O)[C@H](CCCCN)NC(=O)[C@@H](Cc2c[nH]c3ccccc23)NC(=O)[C@H](Cc2ccc(NC(N)=O)cc2)NC(=O)[C@H](NC(=O)[C@H](Cc2ccc(Cl)cc2)NC(N)=O)CSSC[C@@H](C(=O)N[C@@H](Cc2ccc3ccccc3c2)C(N)=O)NC1=O [compound 13, Cbm-Cpa-c[DCys-Aph(Cbm)-DTrp-Lys-Thr-Cys]-2Nal-NH2] (X1-[dC][Phe(4-NHCONH2)][dW]KTC[2Nal]-NH2; disulfide 1-6) |
